Experimental data: patent US20230120895A1, “PESTICIDALLY ACTIVE HETEROCYCLIC DERIVATIVES WITH SULFUR CONTAINING SUBSTITUENTS” (SYNGENTA CROP PROTECTION AG, priority 2019, published 2023)

How the values were obtained:
Format in all cases: in vivo
Diabrotica balteata = assay: Activity against Diabrotica balteata (corn root worm); details: 96 h, application rate 200 ppm, sprayed maize sprouts, L2 larvae, 4 days after infestation, read-out: effect in at least one of the two categories (mortality or growth inhibition)
Description: Maize sprouts placed onto an agar layer in 24-well microtiter plates were treated with aqueous test solutions prepared from 10′000 ppm DMSO stock solutions by spraying. After drying, the plates were infested with L2 larvae (6 to 10 per well). The samples were assessed for mortality and growth inhibition in comparison to untreated samples 4 days after infestation.

Plutella xylostella = assay: Activity against Plutella xylostella (diamond back moth); details: 192 h, application rate 200 ppm, artificial diet, eggs, 8 days after infestation, read-out: effect in at least one of the two categories (mortality or growth inhibition)
Description: 24-well microtiter plates with artificial diet were treated with aqueous test solutions prepared from 10′000 ppm DMSO stock solutions by pipetting. After drying, Plutella eggs were pipetted through a plastic stencil onto a gel blotting paper and the plate was closed with it. The samples were assessed for mortality and growth inhibition in comparison to untreated samples 8 days after infestation. The following compounds gave an effect of at least 80% in at least one of the two categories (mortality or growth inhibition) at an application rate of 200 ppm: P2, P3, P4, P5, P6, P8, P13.

Spodoptera littoralis = assay: Activity against Spodoptera littoralis (Egyptian cotton leaf worm); details: foliar, 72 h, application rate 200 ppm, sprayed cotton leaf discs, L1 larvae, 3 days after infestation, read-out: control (mortality, anti-feeding effect or growth inhibition)
Description: Cotton leaf discs were placed onto agar in 24-well microtiter plates and sprayed with aqueous test solutions prepared from 10′000 ppm DMSO stock solutions. After drying the leaf discs were infested with five L1 larvae. The samples were assessed for mortality, anti-feeding effect, and growth inhibition in comparison to untreated samples 3 days after infestation. Control of Spodoptera littoralis by a test sample is given when at least one of the categories mortality, anti-feedant effect, and growth inhibition is higher than the untreated sample.

Chilo suppressalis = assay: Activity against Chilo suppressalis (striped rice stemborer); details: 144 h, application rate 200 ppm, artificial diet, L2 larvae, 6 days after infestation, read-out: control (mortality, anti-feeding effect or growth inhibition)
Description: 24-well microtiter plates with artificial diet were treated with aqueous test solutions prepared from 10′000 ppm DMSO stock solutions by pipetting. After drying, the plates were infested with L2 larvae (6-8 per well). The samples were assessed for mortality, anti-feeding effect, and growth inhibition in comparison to untreated samples 6 days after infestation. Control of Chilo suppressalis by a test sample is given when at least one of the categories mortality, anti-feedant effect, and growth inhibition is higher than the untreated sample.

Euschistus heros = assay: Activity against Euschistus heros (neotropical brown stink bug); details: 120 h, application rate 200 ppm, sprayed soybean leaves, N2 nymphs, 5 days after infestation, read-out: effect in at least one of the two categories (mortality or growth inhibition)
Description: Soybean leaves on agar in 24-well microtiter plates were sprayed with aqueous test solutions prepared from 10′000 ppm DMSO stock solutions. After drying the leaves were infested with N2 nymphs. The samples were assessed for mortality and growth inhibition in comparison to untreated samples 5 days after infestation.

CCS(=O)(=O)c1cc(-n2ccc(Cl)n2)cnc1-c1cc2ccc(=O)n(CC(F)(F)C(F)(F)F)c2cn1 [P8, 6-[5-(3-chloropyrazol-1-yl)-3-ethylsulfonyl-2-pyridyl]-1-(2,2,3,3,3-pentafluoropropyl)-1,7-naphthyridin-2-one]
≥ 80%: percent effect (mortality or growth inhibition) at 200 ppm (Diabrotica balteata) | percent effect (mortality or growth inhibition) at 200 ppm (Plutella xylostella) | percent control (mortality, anti-feedant effect or growth inhibition) at 200 ppm (Spodoptera littoralis) | percent control (mortality, anti-feedant effect or growth inhibition) at 200 ppm (Chilo suppressalis) | percent effect (mortality or growth inhibition) at 200 ppm (Euschistus heros)

CCSc1cc(C2(C#N)CC2)cnc1-c1cc2ccc(=O)n(CC(F)(F)C(F)(F)F)c2cn1 [P13, 1-[5-ethylsulfanyl-6-[2-oxo-1-(2,2,3,3,3-pentafluoropropyl)-1,7-naphthyridin-6-yl]-3-pyridyl]cyclopropanecarbonitrile]
≥ 80%: percent effect (mortality or growth inhibition) at 200 ppm (Diabrotica balteata) | percent effect (mortality or growth inhibition) at 200 ppm (Plutella xylostella) | percent control (mortality, anti-feedant effect or growth inhibition) at 200 ppm (Spodoptera littoralis) | percent control (mortality, anti-feedant effect or growth inhibition) at 200 ppm (Chilo suppressalis)

CCSc1cc(-n2ccc(Cl)n2)cnc1-c1cc2ccc(=O)n(CC(F)(F)C(F)(F)F)c2cn1 [P14, 6-[5-(3-chloropyrazol-1-yl)-3-ethylsulfanyl-2-pyridyl]-1-(2,2,3,3,3-pentafluoropropyl)-1,7-naphthyridin-2-one]
≥ 80%: percent control (mortality, anti-feedant effect or growth inhibition) at 200 ppm (Chilo suppressalis)

CCS(=O)(=O)c1cc(Oc2ccccn2)cnc1-c1cc2ccc(=O)n(CC(F)(F)C(F)(F)F)c2cn1 [P9, 6-[3-ethylsulfonyl-5-(2-pyridyloxy)-2-pyridyl]-1-(2,2,3,3,3-pentafluoropropyl)-1,7-naphthyridin-2-one]
≥ 80%: percent effect (mortality or growth inhibition) at 200 ppm (Diabrotica balteata) | percent control (mortality, anti-feedant effect or growth inhibition) at 200 ppm (Spodoptera littoralis) | percent control (mortality, anti-feedant effect or growth inhibition) at 200 ppm (Chilo suppressalis) | percent effect (mortality or growth inhibition) at 200 ppm (Euschistus heros)

CCSc1cc(C2(C#N)CC2)cnc1-c1cc2ccc(=O)n(CC(F)(F)F)c2cn1 [P15, 1-[5-ethylsulfanyl-6-[2-oxo-1-(2,2,2-trifluoroethyl)-1,7-naphthyridin-6-yl]-3-pyridyl]cyclopropanecarbonitrile]
≥ 80%: percent effect (mortality or growth inhibition) at 200 ppm (Diabrotica balteata) | percent control (mortality, anti-feedant effect or growth inhibition) at 200 ppm (Spodoptera littoralis) | percent control (mortality, anti-feedant effect or growth inhibition) at 200 ppm (Chilo suppressalis)

CCS(=O)(=O)c1ccc(-n2ccnn2)nc1-c1cc2ccc(=O)n(CC(F)(F)C(F)(F)F)c2cn1 [P12, 6-[3-ethylsulfonyl-6-(triazol-1-yl)-2-pyridyl]-1-(2,2,3,3,3-pentafluoropropyl)-1,7-naphthyridin-2-one]
≥ 80%: percent effect (mortality or growth inhibition) at 200 ppm (Diabrotica balteata) | percent control (mortality, anti-feedant effect or growth inhibition) at 200 ppm (Spodoptera littoralis) | percent control (mortality, anti-feedant effect or growth inhibition) at 200 ppm (Chilo suppressalis)

CCS(=O)(=O)c1ccc(-n2nccn2)nc1-c1cc2ccc(=O)n(CC(F)(F)C(F)(F)F)c2cn1 [P11, 6-[3-ethylsulfonyl-6-(triazol-2-yl)-2-pyridyl]-1-(2,2,3,3,3-pentafluoropropyl)-1,7-naphthyridin-2-one]
≥ 80%: percent effect (mortality or growth inhibition) at 200 ppm (Diabrotica balteata) | percent control (mortality, anti-feedant effect or growth inhibition) at 200 ppm (Spodoptera littoralis) | percent control (mortality, anti-feedant effect or growth inhibition) at 200 ppm (Chilo suppressalis)
